From patent US20240002441A1, “PEPTIDES AND USES THEREOF IN MODULATION OF AMYLOID-BETA PROTEIN DEGRADING PROTEASES” (priority 2020, published 2024)
Like-named read-outs stand apart in the source and are kept apart here.

Key:
NEP [1] = target: T1, NEP (Homo sapiens, UniProt P08473); assay: NEP enzyme kinetics study with QFS (Example 5); assay type: biochemical; settings: NEP QFS 0-120 μM; pre-incubation 1 h at 37° C.
T1 construct: purchased R & D systems 1182-ZNC-010
Description: (§1) Plate reader-based enzyme assays were performed using a quenched fluorescent substrate (QFS) in a 96-well format using a SpectraMAX M4 Microplate reader (Molecular Devices). The increase in fluorescence following addition of QFS (40 μM) was taken as evidence of enzyme activity. Fluorescence was monitored over 2 h at 37° C. using κEx=320 nm and λEm=405 nm. Assays were conducted in black 96-well plates. Specific enzyme activity was expressed as a rate of substrate cleavage calculated using a standard curve of 7-methoxy-coumarin-4-acetic acid.
(§2) In all plate reader-based enzyme assays using QFS, the reaction rate (μmol of substrate cleaved/min) was calculated using linear regression analysis (GraphPad Prism software version 8.01). The reaction rates calculated were used to generate the enzyme kinetic parameters Vmax and Km through non-linear regression analysis (GraphPad Prism software, version 8.01; Michaelis-Menten equation). Where indicated, enzyme activity in the presence of peptide was expressed as a % of the enzyme alone. Data were expressed as mean±SEM and statistical significance was determined using t-tests or one-way ANOVAs followed by Tukey's post-hoc test. P<0.05 was considered as statistically significant. In all assays conducted using 96-well plates, the reaction mixtures in each well were considered an independent experiment. […]

ACE2 = target: T2, ACE2 (Homo sapiens, UniProt Q9BYF1); assay: ACE2 enzyme kinetics study with QFS (Example 5); assay type: biochemical; settings: rhACE2 0.1 ng/μL, ACE2 QFS 0-100 μM; pre-incubation 1 h at 37° C.
T2 construct: purchased R & D systems 933-ZN-010
T2 sequence (Q9BYF1 18-805): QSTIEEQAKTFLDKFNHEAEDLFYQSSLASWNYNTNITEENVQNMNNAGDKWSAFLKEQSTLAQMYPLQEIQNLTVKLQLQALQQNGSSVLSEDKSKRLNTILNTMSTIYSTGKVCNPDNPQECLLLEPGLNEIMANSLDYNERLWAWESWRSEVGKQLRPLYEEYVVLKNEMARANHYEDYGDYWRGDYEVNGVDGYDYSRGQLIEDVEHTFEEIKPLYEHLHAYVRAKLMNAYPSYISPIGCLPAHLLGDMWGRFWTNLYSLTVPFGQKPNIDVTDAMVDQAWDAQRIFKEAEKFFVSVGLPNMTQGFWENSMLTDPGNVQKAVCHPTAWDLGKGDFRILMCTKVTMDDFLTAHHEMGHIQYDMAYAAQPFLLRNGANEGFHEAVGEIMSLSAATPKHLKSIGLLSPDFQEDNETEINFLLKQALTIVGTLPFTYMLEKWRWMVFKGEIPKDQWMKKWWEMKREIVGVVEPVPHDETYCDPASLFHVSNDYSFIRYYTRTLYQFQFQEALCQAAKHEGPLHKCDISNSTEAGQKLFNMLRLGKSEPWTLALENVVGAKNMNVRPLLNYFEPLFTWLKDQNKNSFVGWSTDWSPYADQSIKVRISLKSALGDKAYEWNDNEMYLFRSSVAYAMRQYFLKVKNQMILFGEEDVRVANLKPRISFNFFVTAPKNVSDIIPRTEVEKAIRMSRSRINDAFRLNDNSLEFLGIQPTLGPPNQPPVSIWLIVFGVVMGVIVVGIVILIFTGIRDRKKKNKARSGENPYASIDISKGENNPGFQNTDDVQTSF
Description: as §1, §2

MMP-2 = target: T3, MMP-2 (Homo sapiens, UniProt P08253); assay: QFS assay of Aβ-degrading enzymes: MMP-2 (Example 6); assay type: biochemical; settings: MMP2 0.50 ng/μL activated with p-aminophenylmercuric acetate
T3 construct: purchased Sigma Aldrich SRP6270-10UG
T3 sequence (P08253 110-660): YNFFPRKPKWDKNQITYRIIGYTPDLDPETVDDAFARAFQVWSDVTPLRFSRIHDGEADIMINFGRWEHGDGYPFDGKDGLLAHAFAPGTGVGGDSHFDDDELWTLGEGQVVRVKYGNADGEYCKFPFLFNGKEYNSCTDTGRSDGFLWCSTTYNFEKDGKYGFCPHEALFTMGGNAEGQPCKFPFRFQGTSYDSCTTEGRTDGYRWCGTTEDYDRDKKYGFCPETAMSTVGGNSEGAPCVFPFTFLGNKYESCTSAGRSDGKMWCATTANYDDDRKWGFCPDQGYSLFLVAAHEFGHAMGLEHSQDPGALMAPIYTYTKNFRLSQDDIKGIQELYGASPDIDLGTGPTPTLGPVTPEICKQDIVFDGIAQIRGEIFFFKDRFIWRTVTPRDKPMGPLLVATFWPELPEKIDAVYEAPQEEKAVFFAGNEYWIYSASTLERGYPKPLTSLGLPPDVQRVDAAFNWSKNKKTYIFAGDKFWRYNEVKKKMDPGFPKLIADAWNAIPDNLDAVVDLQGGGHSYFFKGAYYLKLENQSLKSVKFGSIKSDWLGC
Description: as §1
as §2, with “significant.” for “significant. In all assays conducted using 96-well plates, the reaction mixtures in each well were considered an independent experiment.”
SEQ ID NO:2 was assessed in a QFS assay against enzymes NEP, ECE1, ECE2, ACE1, ACE2, IDE and MMP-2 using the method in Example 2 and the following procedure. […]

NEP [2] = target: T1, NEP; assay: Cleavage of synthetic Aβ42 by NEP, LCMS (Example 7); assay type: biochemical; settings: NEP 0.15 ng/μL, peptide 9 μM, Aβ42 0.05 μg/μL
Description: Synthetic Aβ40 (0.10 μg/μL) was added to a reaction mixture containing NEP (0.05 ng/μL) pre-incubated with SEQ ID NO:2 or scrambled control (9 μM) for 1 h at 37° C. Synthetic Aβ42 (0.05 μg/μL) was added to a reaction mixture containing NEP (0.15 ng/μL) preincubated with either scrambled control or SEQ ID NO:2 (9 μM) for 1 h at 37° C. Samples containing enzyme alone had only NEP buffer (Table 2). The cleavage reaction was allowed to continue in a thermomixer at 37° C. Aliquots of equal volume were taken over 24 h. Aliquots were immediately acidified with 0.1% trifluoroacetic acid (TFA) to terminate enzyme activity and snap frozen in dry ice. Samples were stored at −80° C. until analysed by LCMS.
Samples were analysed by LC-MS/MS using a quadrupole TOF mass spectrometer (MicroTOFq, Bruker Daltonics, Bremen, Germany) coupled online with a 1200 series nano-HPLC (Agilent technologies, Santa Clara, CA, USA). Samples were injected onto a zorbax 300SB reversed phase trap column with 95% solvent A (0.1% formic acid) at a flow rate of 10 μL/minute. The peptides were eluted over a 10-min gradient to 70% solvent B (80% acetonitrile, 0.1% formic acid) and separated on a 15-cm, 75-μmID zorbax 300SB nanocolumn. The eluent was nebulised and ionised using the Bruker nano-ESI source with a capillary voltage of 4500 V, dry gas at 180° C., flow rate of 5 L/minute and nebuliser gas pressure at 300 mbar. […]

SARS-CoV-2 = assay type: cell-based; settings: pre-treatment, Vero cells, 8 h

T1 sequence (P08473 whole entry): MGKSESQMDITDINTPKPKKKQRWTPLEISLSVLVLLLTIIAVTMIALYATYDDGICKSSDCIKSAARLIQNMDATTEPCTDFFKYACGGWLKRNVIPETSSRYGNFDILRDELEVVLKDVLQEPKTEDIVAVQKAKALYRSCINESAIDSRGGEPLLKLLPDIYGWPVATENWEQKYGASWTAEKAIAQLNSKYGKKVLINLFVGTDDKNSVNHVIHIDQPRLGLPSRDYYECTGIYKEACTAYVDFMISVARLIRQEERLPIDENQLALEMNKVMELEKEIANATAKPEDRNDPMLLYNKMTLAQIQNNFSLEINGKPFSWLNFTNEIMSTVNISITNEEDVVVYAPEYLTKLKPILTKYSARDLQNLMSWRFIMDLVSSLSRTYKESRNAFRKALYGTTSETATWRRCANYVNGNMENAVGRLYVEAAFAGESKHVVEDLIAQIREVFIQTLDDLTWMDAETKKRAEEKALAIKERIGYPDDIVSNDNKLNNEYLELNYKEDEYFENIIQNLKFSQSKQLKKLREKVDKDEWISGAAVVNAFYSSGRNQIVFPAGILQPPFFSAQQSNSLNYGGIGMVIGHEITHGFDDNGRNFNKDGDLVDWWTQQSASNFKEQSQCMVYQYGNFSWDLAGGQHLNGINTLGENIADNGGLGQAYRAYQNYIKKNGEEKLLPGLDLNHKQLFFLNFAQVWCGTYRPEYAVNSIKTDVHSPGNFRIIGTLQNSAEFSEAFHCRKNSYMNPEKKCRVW

With “H-SLFELGKMIL-NH2 [SEQ ID NO:2, H2N-SLFELGKMIL-NH2]” the “vmax of rhNEP in the presence of peptide” value (NEP [1]) was 0.035±0.002 μmol substrate cleaved/min, the “vmax of rhACE2 in the presence of peptide” value (ACE2) was 0.09±0.002 μmol substrate cleaved/min and the “activity of MMP-2 in the presence of peptide” value (MMP-2) was 0.7±0.2 μmol of substrate cleaved. The “effect on the activity of MMP-2” value (MMP-2) was “did not affect”, the “amount of cleavage products Aβ1-12, Aβ1-16 and Aβ1-21 formed from Aβ42 over 24 h, compared with scrambled control” value (NEP [2]) was “significantly higher” and the “viral titre compared to PBS” value (SARS-CoV-2; 200 ng/μL) was “significantly reduced”. The “viral RNA compared to PBS” value (SARS-CoV-2; 400 ng/μL) was “significantly reduced” and the “viral titre compared to PBS” value (SARS-CoV-2; 400 ng/μL) was “significantly reduced”.
